US20180057505A1, “BICYCLIC HETEROARYL COMPOUNDS USEFUL AS INHIBITORS OF THE PAR-2 SIGNALING PATHWAY” (VERTEX PHARMACEUTICALS INCORPORATED, priority 2015, published 2018)
pIC50: −log10 of the molar value.

Experiments:
Format in all cases: cell-based
PAR2 (HT-29 cells) [1] = target: T1, PAR2 (HT-29 cells) (Homo sapiens, UniProt P55085); experiment: Ca FLIPR TETRA assay, ANTAGONIST mode, activator 8 μM SLIGKV; details: HT-29 cells, activator 8 μM SLIGKV; maximal antagonist concentration per Method (A: 0.1, 1 or 2 μM; B: 50 μM)
T1 construct: host or cells: HT-29
T1 sequence (P55085 26-397): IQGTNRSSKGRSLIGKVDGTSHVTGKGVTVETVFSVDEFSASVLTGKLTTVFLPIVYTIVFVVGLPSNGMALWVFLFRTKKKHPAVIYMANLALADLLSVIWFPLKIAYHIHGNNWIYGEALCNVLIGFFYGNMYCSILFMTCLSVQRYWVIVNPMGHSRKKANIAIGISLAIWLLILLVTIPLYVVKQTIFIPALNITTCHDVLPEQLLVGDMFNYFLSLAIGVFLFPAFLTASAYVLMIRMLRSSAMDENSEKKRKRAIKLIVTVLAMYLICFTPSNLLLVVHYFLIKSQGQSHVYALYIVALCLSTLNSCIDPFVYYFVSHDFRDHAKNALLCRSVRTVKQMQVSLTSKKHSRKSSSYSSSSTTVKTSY
Summary of the method: (§1)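 Ca2+ flux by FLIPR Tetra in HT-29 cells after 30 min r.t. compound preincubation, followed by stimulation with SLIGKV 8 μM, thrombin 1 U/mL, trypsin 3.1 U/mL or UTP 0.6 μM (final). Cells were dye-loaded with calcium 5 beforehand; compound-only responses were also read.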

[2] = test system: Thrombin-stimulated Ca2+ response in HT-29 cells; experiment: Ca FLIPR TETRA assay, ANTAGONIST mode, activator 1 U/mL Thrombin; details: Homo sapiens; HT-29 cells, activator 1 U/mL Thrombin
Summary of the method: as §1

[3] = test system: UTP-stimulated Ca2+ response in HT-29 cells; experiment: Ca FLIPR TETRA assay, ANTAGONIST mode, activator 0.6 μM UTP; details: Homo sapiens; for pIC50: HT-29 cells, activator 0.6 μM UTP; for inhibition at 50 µM: HT-29
Summary of the method: as §1

PAR2 (HT-29 cells) [4] = target: T1, PAR2 (HT-29 cells); experiment: Ca FLIPR TETRA assay, ANTAGONIST mode, activator 3.1 U/mL trypsin; details: for pIC50: HT-29 cells, activator 3.1 U/mL trypsin, maximal antagonist concentration per Method (A: 0.1, 1 or 2 μM; B: 50 μM)
Summary of the method: as §1

| SMILES | pIC50 (PAR2 (HT-29 cells) [1]) | pIC50 [2] | pIC50 [3] | pIC50 (PAR2 (HT-29 cells) [4]) | Trypsin, % @ 50 (PAR2 (HT-29 cells) [4]; @ 50 (μM)) | inhibition at 50 µM [3] |
| --- | --- | --- | --- | --- | --- | --- |
| CC(C)c1cc(-c2ccc(F)cc2)nc2cc(C(=O)N3CCN(C(=O)[C@@H](C)O)C[C@H]3C)oc12 [Example I-98] | 5.28 | 4.74 | 4.70 | 5.15 | – | – |
| CC(C)c1cc(-c2ccc(F)cc2)nc2cc(C(=O)N3CCN(C(=O)[C@H](O)CC(C)(C)C)C[C@H]3C)oc12 [Example I-99] | 7.21 | 5.41 | – | 6.37 | – | 63% |
| CC(C)c1cc(-c2ccc(F)cc2)nc2cc(C(=O)N3CCN(C(=O)C4(O)CCOCC4)C[C@H]3C)oc12 [Example I-100] | 5.04 | 4.80 | 4.89 | 4.96 | – | – |
| CC(C)c1cc(-c2ccc(F)cc2)nc2cc(C(=O)N3CCN(C(=O)C(C)(C)O)C[C@H]3C)oc12 [Example I-101] | 5.12 | 4.74 | 4.89 | 5.04 | – | – |
| CC(C)c1cc(-c2ccc(F)cc2)nc2cc(C(=O)N3CCN(C(=O)C4(O)CCC4)C[C@@H]3C)oc12 [Example I-102] | 5.33 | 4.80 | 5.27 | 5.28 | – | – |
| CC(C)c1cc(-c2ccc(F)cc2)nc2cc(C(=O)N3CCN(C(=O)[C@@H](C)O)C[C@@H]3C)oc12 [Example I-103] | 5.10 | 4.54 | 4.62 | 5.07 | – | – |
| CC(C)c1cc(-c2ccc(F)cc2)nc2cc(C(=O)N3CCN(C(=O)[C@H](O)CC(C)(C)C)C[C@@H]3C)oc12 [Example I-104] | 6.14 | 5.59 | – | 6.08 | – | 64% |
| CCCS(=O)(=O)N1CCN(C(=O)c2cc3nc(-c4ccc(F)cc4)cc(C4(C)CC4)c3o2)C(C)(C)C1 [Example I-107] | 7.47 | < 4.30 | < 4.30 | 7.55 | – | – |
| CC[C@@H](O)C(=O)N1CCN(C(=O)c2cc3nc(-c4ccc(F)cc4)cc(C4(C)CC4)c3o2)C[C@@H]1C [Example I-110] | 7.40 | 4.74 | 4.85 | 7.19 | – | – |
| C[C@H]1CN(C(=O)c2cc3nc(-c4ccc(F)cc4)cc(C4(C)CC4)c3o2)CCN1C(=O)C(O)C1CC1 (some centres unmarked) [Example I-111] | 7.25 | 4.72 | 4.92 | 7.39 | – | – |
| CC(C)[C@@H](O)C(=O)N1CCN(C(=O)c2cc3nc(-c4ccc(F)cc4)cc(C4(C)CC4)c3o2)C[C@@H]1C [Example I-112] | 7.89 | 4.89 | 4.96 | 7.57 | – | – |
| C[C@H]1CN(C(=O)c2cc3nc(-c4ccc(F)cc4)cc(C4(C)CC4)c3o2)CCN1C(=O)C(O)c1ccc(F)cc1 (some centres unmarked) [Example I-114] | 8.66 | 4.57 | 4.52 | 8.57 | – | – |
| C[C@H]1CN(C(=O)c2cc3nc(-c4ccc(F)cc4)cc(C4(C)CC4)c3o2)CCN1C(=O)C1CCC1 [Example I-115] | 7.34 | < 4.30 | – | 7.04 | – | 66% |
| C[C@H]1CN(C(=O)c2cc3nc(-c4ccc(F)cc4)cc(C4(C)CC4)c3o2)CCN1C(=O)C1CC1 [Example I-116] | 6.46 | 4.89 | 5.16 | 6.00 | – | – |
| C[C@H]1CN(C(=O)c2cc3nc(-c4ccc(F)cc4)cc(C4(C)CC4)c3o2)CCN1C(=O)C1(O)CC1 [Example I-117] | 5.96 | 4.92 | 5.11 | 5.64 | – | – |
| C[C@H]1CN(C(=O)c2cc3nc(-c4ccc(F)cc4)cc(C4(C)CC4)c3o2)CCN1C(=O)C1(C)CC1 [Example I-118] | 6.22 | 5.01 | 5.21 | 6.11 | – | – |
| C[C@H]1CN(C(=O)c2cc3nc(-c4ccc(F)cc4)cc(C4(C)CC4)c3o2)CCN1C(=O)C1(C#N)CC1 [Example I-119] | 6.21 | 5.85 | 5.80 | 6.25 | – | – |
| C[C@H]1CN(C(=O)c2cc3nc(-c4ccc(F)cc4)cc(C4(C)CC4)c3o2)CCN1C(=O)C1CCOCC1 [Example I-120] | 6.44 | 4.89 | 4.89 | 5.89 | – | – |
| Cc1cc(C(=O)N2CCN(C(=O)c3cc4nc(-c5ccc(F)cc5)cc(C5(C)CC5)c4o3)C[C@@H]2C)n(C)n1 [Example I-123] | 6.47 | 5.35 | 5.39 | 6.03 | – | – |
| CC(C)c1nc(-c2ccc(F)cc2)nc2cc(C(=O)N3CCNC(=O)C3(C)C)oc12 [Example I-124] | 6.03 | 4.62 | 4.64 | 5.72 | – | – |
| CC(C)c1nc(-c2ccc(F)cc2)nc2cc(C(=O)N3CCN(C(=O)[C@H](O)CC(C)(C)C)CC3(C)C)oc12 [Example I-126] | 6.96 | 4.89 | 4.66 | 7.17 | – | – |
| CC1(c2nc(-c3ccc(F)cc3)nc3cc(C(=O)N4CCNC(=O)C4(C)C)oc23)CC1 [Example I-127] | 6.13 | < 4.30 | < 4.30 | – | 49% @ 50 | – |

Further lines, with some results ahead:

| pIC50 (PAR2 (HT-29 cells) [1]) | pIC50 [2] | pIC50 [3] | pIC50 (PAR2 (HT-29 cells) [4]) | Trypsin, % @ 50 (PAR2 (HT-29 cells) [4]; @ 50 (μM)) | SMILES | inhibition at 50 µM [3] |
| --- | --- | --- | --- | --- | --- | --- |
| 5.06 | 4.92 | 4.82 | 5.11 | – | CC(C)c1cc(-c2ccc(F)cc2)nc2cc(C(=O)N3CCN(C(=O)C4(O)CCOCC4)C[C@@H]3C)oc12 [Example I-105] | – |
| 5.11 | 4.82 | 4.85 | 5.11 | – | CC(C)c1cc(-c2ccc(F)cc2)nc2cc(C(=O)N3CCN(C(=O)C(C)(C)O)C[C@@H]3C)oc12 [Example I-106] | – |
| 8.66 | < 4.30 | < 4.30 | 8.74 | – | CCOC(=O)N1CCN(C(=O)c2cc3nc(-c4ccc(F)cc4)cc(C4(C)CC4)c3o2)C(C)(C)C1 [Example I-108] | – |
| 5.64 | 4.92 | 4.96 | 5.47 | – | C[C@H]1CN(C(=O)c2cc3nc(-c4ccc(F)cc4)cc(C4(C)CC4)c3o2)CCN1C(=O)C(C)(C)O [Example I-109] | – |
| 7.96 | 4.77 | 4.92 | 8.70 | – | CC(C)C[C@@H](O)C(=O)N1CCN(C(=O)c2cc3nc(-c4ccc(F)cc4)cc(C4(C)CC4)c3o2)C[C@@H]1C [Example I-113] | – |
| 5.96 | 5.26 | 5.20 | 5.74 | – | C[C@H]1CN(C(=O)c2cc3nc(-c4ccc(F)cc4)cc(C4(C)CC4)c3o2)CCN1C(=O)C1(O)CCOCC1 [Example I-121] | – |
| 6.00 | 5.72 | 5.80 | 6.48 | – | C[C@H]1CN(C(=O)c2cc3nc(-c4ccc(F)cc4)cc(C4(C)CC4)c3o2)CCN1C(=O)c1ccn[nH]1 [Example I-122] | – |
| 6.59 | 4.49 | 4.70 | 5.72 | – | CC(C)c1nc(-c2ccc(F)cc2)nc2cc(C(=O)N3CCN(C(=O)[C@H](O)CC(C)(C)C)[C@@H](C)C3)oc12 [Example I-125] | – |
| 6.27 | < 4.30 | 4.36 | 5.28 | – | C[C@H]1CN(C(=O)c2cc3nc(-c4ccc(F)cc4)nc(C4(C)CC4)c3o2)CCN1C(=O)[C@H](O)CC(C)(C)C [Example I-128] | – |
| 6.60 | < 4.30 | < 4.30 | 6.57 | – | CC(C)(C)C[C@@H](O)C(=O)N1CCN(C(=O)c2cc3nc(-c4ccc(F)cc4)nc(C4(C)CC4)c3o2)C(C)(C)C1 [Example I-129] | – |
